Laboratory results taken from US11806367B2, “Methods of treating lysosomal disorders” (The Regents of the University of California, priority 2017, dated 2023).
Like-named read-outs stand apart in the source and are kept apart here.

Columns and labels:
Ctns^−/− mice = tested on: Ctns^−/− mice
Protocol: Ctns^−/− mice were exposed to myeloablative drugs currently used in clinic for HSC transplantation, Busulfan (Bu) and Cyclophosphamide (Cy) to test if drug-mediated myeloablation allow efficient engraftment of Ctns-expressing HSC in the preclinical model, decreased tissue cystine and to determine if any unexpected toxicity occurs because of cystinosis. Drugs were injected intraperitoneally (IP) in Ctns^−/− mice and WT mice as controls.

[1] = affected patients; cited from earlier work

O=P1(N(CCCl)CCCl)NCCCO1 (stereo not shown) [Cy, Cyclophosphamide]
toxicity in Ctns^−/− mice (Ctns^−/− mice; IP injection, 4 months post-transplant, compared to WT controls): not toxic

CS(=O)(=O)OCCCCOS(C)(=O)=O [Bu, Busulfan]
donor cell engraftment measured in the peripheral blood (Ctns^−/− mice; 4 months post-transplant): 94.0±0.8%
toxicity in Ctns^−/− mice (Ctns^−/− mice; mouse, in vivo, ip): not toxic

NCCS [cysteamine, mercaptoethylamine]
effect on renal Fanconi syndrome [1]: has no effect
